Measurements published in ChEMBL document CHEMBL5226282, “TLR2 Agonistic Small Molecules: Detailed Structure-Activity Relationship, Applications, and Future Prospects” (J Med Chem, 2021).
*1 amine or outer side, *2 acyl side, *3 side chain or, on linkers, in order; H or OH if unused. Where a SMILES comes first, the peptide text is derived from it. [ ]: non-standard residue; d: D form. The star is where a group is joined. X1 = CCCCCCCCCCCCCCCC(=O)OCC(CCCC(N[*:1])C(=O)[*:2])OC(=O)CCCCCCCCCCCCCCC; X2 = CCCCCCCCCCCCCCCC(=O)OCC(C*)OC(=O)CCCCCCCCCCCCCCC; Palmitoyl = CCCCCCCCCCCCCCCC(=O)*

Key:
Toll-like receptor 2 [1] = target: T1, Toll-like receptor 2 (Homo sapiens, UniProt O60603); assay: Agonist activity at human TLR2 transfected in HEK293 cells relative to control; assay type: cell-based
Toll-like receptor 2 [2] = target: T1, Toll-like receptor 2; assay: Agonist activity at human TLR2 transfected in HEK293 cells; assay type: cell-based
Toll-like receptor 2 [3] = target: T1, Toll-like receptor 2; assay: Agonist activity at TLR2 (unknown origin)
Toll-like receptor 2 [4] = target: T1, Toll-like receptor 2; assay: Binding affinity to TLR2 (unknown origin)
Toll-like receptor 1/2 [5] = target: T2, Toll-like receptor 1/2 (Homo sapiens, UniProt O60603+Q15399); assay: Agonist activity at TLR2/TLR1 (unknown origin); assay type: protein-complex assay
TLR2/TLR6 (Homo sapiens) = TLR2/TLR6 (Homo sapiens) (UniProt O60603+Q9Y2C9); assay: Agonist activity at TLR2/TLR6 (unknown origin) assessed as induction of IL-8 production relative to control; assay type: protein-complex assay
Toll-like receptor 1/2 [6] = target: T2, Toll-like receptor 1/2; assay: Agonist activity at TLR2/TLR1 (unknown origin) assessed as induction of IL-8 production relative to control; assay type: protein-complex assay; conditions: filed as agonist

T1 sequence (O60603 whole entry): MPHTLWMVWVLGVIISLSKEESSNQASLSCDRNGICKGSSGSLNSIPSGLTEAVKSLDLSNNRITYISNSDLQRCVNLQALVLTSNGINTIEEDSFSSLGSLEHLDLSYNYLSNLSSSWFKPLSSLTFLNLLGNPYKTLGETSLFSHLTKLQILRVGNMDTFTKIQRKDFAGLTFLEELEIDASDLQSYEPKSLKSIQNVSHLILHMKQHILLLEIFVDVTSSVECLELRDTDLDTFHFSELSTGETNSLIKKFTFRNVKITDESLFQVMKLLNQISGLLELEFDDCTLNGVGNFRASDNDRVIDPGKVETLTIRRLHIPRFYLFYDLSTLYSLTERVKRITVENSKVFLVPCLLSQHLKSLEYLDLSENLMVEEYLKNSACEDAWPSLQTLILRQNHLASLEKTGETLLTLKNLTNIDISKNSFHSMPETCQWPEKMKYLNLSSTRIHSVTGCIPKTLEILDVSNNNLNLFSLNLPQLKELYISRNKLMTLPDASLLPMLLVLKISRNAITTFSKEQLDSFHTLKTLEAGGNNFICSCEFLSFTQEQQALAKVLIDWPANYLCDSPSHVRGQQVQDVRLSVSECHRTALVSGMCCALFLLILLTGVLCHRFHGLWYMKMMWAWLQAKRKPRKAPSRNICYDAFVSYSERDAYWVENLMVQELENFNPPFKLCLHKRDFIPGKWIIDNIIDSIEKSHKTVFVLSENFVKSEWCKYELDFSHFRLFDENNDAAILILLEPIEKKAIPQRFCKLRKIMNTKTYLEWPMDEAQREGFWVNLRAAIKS
T2 sequence (O60603 whole entry): as above
T2 sequence (Q15399 whole entry): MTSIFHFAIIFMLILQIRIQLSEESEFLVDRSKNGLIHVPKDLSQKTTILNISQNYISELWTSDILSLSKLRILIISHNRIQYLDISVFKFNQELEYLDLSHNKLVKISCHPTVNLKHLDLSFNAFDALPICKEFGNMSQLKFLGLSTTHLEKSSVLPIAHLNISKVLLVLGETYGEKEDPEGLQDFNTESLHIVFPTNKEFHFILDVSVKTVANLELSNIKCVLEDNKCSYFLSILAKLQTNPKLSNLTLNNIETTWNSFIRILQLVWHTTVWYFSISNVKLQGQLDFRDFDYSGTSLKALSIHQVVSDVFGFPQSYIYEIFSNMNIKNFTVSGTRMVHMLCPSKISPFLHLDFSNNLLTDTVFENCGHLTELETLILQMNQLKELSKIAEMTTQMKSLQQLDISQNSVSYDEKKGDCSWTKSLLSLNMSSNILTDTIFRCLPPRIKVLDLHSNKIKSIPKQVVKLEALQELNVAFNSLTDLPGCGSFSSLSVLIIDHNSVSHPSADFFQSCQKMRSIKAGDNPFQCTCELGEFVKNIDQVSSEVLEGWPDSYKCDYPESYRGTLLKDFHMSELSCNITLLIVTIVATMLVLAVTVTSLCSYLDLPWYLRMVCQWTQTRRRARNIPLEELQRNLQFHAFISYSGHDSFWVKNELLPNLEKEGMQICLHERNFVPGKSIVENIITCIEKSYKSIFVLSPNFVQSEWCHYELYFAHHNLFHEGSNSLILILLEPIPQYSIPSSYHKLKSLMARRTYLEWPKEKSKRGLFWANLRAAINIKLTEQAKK

SMILES | EC50 (Toll-like receptor 2 [1]) | EC50 (Toll-like receptor 2 [2]) | further results
CCCCCCCCCCCCCCCC(=O)N[C@H](CSC[C@@H](COC(=O)CCCCCCCCCCC)OC(=O)CCCCCCCCCCC)C(=O)NCCOCCOCCOCCP(=O)(O)O | > 100000 nM | > 100000 nM | 
CCCCCCCCCCCCCCCC(=O)OCCSC[C@H](NC(=O)COCC(=O)NCCCOCCOCCOCCCNc1ccc(C2=C(/C=C/C3=[N+](CC)c4ccccc4C3(C)C)CCC/C2=C\C=C2\N(CCC)c3ccccc3C2(C)C)cc1)C(=O)NCC(=O)N[C@H](CO)C(=O)COCC(=O)NCCCOCCOCCOCCCN |  |  | IC50 (Toll-like receptor 2 [3]): 361 nM; Ki (Toll-like receptor 2 [4]): 16 nM
CNc1ccc([N+](=O)[O-])cc1-n1cnc(-c2ccc(C(F)(F)F)cc2)c1 |  |  | EC50 (Toll-like receptor 1/2 [5]): 5.2 µM
CCCCCCCC(=O)OC[C@H](CSC[C@@H](N)C(=O)NCCOCCOCCOCCP(=O)(O)O)OC(=O)CCCCCCC | 3040 nM | 3040 nM | 
CCCCCCCCCCCCCCCC(=O)OCCSC[C@H](NC(=O)COCC(=O)NCCCOCCOCCOCCCNC)C(=O)NCC(=O)N[C@H](CO)C(=O)COCC(=O)NCCCOCCOCCOCCCN |  |  | EC50 (Toll-like receptor 2 [3]): 674 nM; Ki (Toll-like receptor 2 [4]): 22 nM
CCCCCCCCCCCCCCCC(=O)OCC[C@H](CS[C@H](NC(C)=O)C(=O)N[C@@H](CO)C(=O)N[C@@H](CCCCN)C(=O)N[C@@H](CCCCN)C(=O)N[C@@H](CCCCN)C(=O)N[C@@H](CCCCN)C(=O)N[C@@H](CO)C(=O)N[C@@H](CC(C)C)C(=O)N[C@@H](CC(C)C)C(=O)N[C@@H](CCSC)C(=O)N[C@@H](Cc1c[nH]c2ccccc12)C(=O)N[C@H](C(=O)N[C@H](C(=O)N[C@@H](CCC(N)=O)C(=O)N[C@H](C(=O)O)C(C)C)[C@@H](C)O)[C@@H](C)CC)OC(=O)CCCCCCCCCCCCCCC |  |  | EC50 (Toll-like receptor 2 [3]): 1160 nM
CCCCCCCCCCCCCCCC(=O)OCC[C@H](CS[C@H](N)C(=O)N[C@@H](CO)C(=O)N[C@@H](CCCCN)C(=O)N[C@@H](CCCCN)C(=O)N[C@@H](CCCCN)C(=O)N[C@@H](CCCCN)C(=O)N[C@@H](CO)C(=O)N[C@@H](CC(C)C)C(=O)N[C@@H](CC(C)C)C(=O)N[C@@H](CCSC)C(=O)N[C@@H](Cc1c[nH]c2ccccc12)C(=O)N[C@H](C(=O)N[C@H](C(=O)N[C@@H](CCC(N)=O)C(=O)N[C@H](C(=O)O)C(C)C)[C@@H](C)O)[C@@H](C)CC)OC(=O)CCCCCCCCCCCCCCC |  |  | EC50 (Toll-like receptor 2 [3]): 609 nM
CCCCCCCCCCCCCCCC(=O)NC(CCCC(COC(=O)CCCCCCCCCCCCCCC)OC(=O)CCCCCCCCCCCCCCC)C(=O)N[C@@H](CO)C(=O)N[C@@H](CO)C(=O)N[C@@H](CC(N)=O)C(=O)N[C@@H](C)C(=O)N[C@@H](CO)C(=O)N[C@@H](CCCCN)C(=O)N[C@@H](CCCCN)C(=O)N[C@@H](CCCCN)C(=O)N[C@@H](CCCCN)C(=O)O (stereo partly drawn) (Palmitoyl-[X1]SSNASKKKK-OH) |  |  | Activity (TLR2/TLR6 (Homo sapiens)): 23%
CCCCCCCCCCCCCCCC(=O)OCC[C@@H](CS[C@H](NC(C)=O)C(=O)N[C@@H](CO)C(=O)N[C@@H](CCCCN)C(=O)N[C@@H](CCCCN)C(=O)N[C@@H](CCCCN)C(=O)N[C@@H](CCCCN)C(=O)N[C@@H](CO)C(=O)N[C@@H](CC(C)C)C(=O)N[C@@H](CC(C)C)C(=O)N[C@@H](CCSC)C(=O)N[C@@H](Cc1c[nH]c2ccccc12)C(=O)N[C@H](C(=O)N[C@H](C(=O)N[C@@H](CCC(N)=O)C(=O)N[C@H](C(=O)O)C(C)C)[C@@H](C)O)[C@@H](C)CC)OC(=O)CCCCCCCCCCCCCCC |  |  | EC50 (Toll-like receptor 2 [3]): 17400 nM
CCCCCCCCCCCCCCCC(=O)OCCCCC[C@H](CS[C@H](N)C(=O)N[C@@H](CO)C(=O)N[C@@H](CCCCN)C(=O)N[C@@H](CCCCN)C(=O)N[C@@H](CCCCN)C(=O)N[C@@H](CCCCN)C(=O)N[C@@H](CO)C(=O)N[C@@H](CC(C)C)C(=O)N[C@@H](CC(C)C)C(=O)N[C@@H](CCSC)C(=O)N[C@@H](Cc1c[nH]c2ccccc12)C(=O)N[C@H](C(=O)N[C@H](C(=O)N[C@@H](CCC(N)=O)C(=O)N[C@H](C(=O)O)C(C)C)[C@@H](C)O)[C@@H](C)CC)OC(=O)CCCCCCCCCCCCCCC |  |  | EC50 (Toll-like receptor 2 [3]): 4440 nM
CCCCCCCCCCCCCCCC(=O)N[C@@H](CSCC(COC(=O)CCCCCCCCCCCCCCC)OC(=O)CCCCCCCCCCCCCCC)C(=O)N[C@@H](CCC(N)=O)C(=O)N1CCC[C@H]1C(=O)N[C@@H](CC(=O)O)C(=O)N[C@@H](CCCNC(=N)N)C(=O)N[C@@H](Cc1ccc(O)cc1)C(N)=O (stereo partly drawn) (Palmitoyl-C(X2)QPDRY-NH2) |  |  | Activity (Toll-like receptor 1/2 [6]): 93%
CCCCCCCCCCNC(=O)OC[C@H](CSC[C@@H](NC(C)=O)C(=O)NCCOCCOCCOCCP(=O)(O)O)OC(=O)NCCCCCCCCCC | 830 nM | 830 nM | 
CCCCCCCCCCCCCCCC(=O)N[C@@H](CSCC(COC(=O)CCCCCCCCCCCCCCC)OC(=O)CCCCCCCCCCCCCCC)C(=O)N[C@@H](CCCNC(=N)N)C(=O)N1CCC[C@H]1C(=O)N[C@@H](CC(=O)O)C(=O)N[C@@H](CCCNC(=N)N)C(=O)N[C@@H](Cc1ccc(O)cc1)C(N)=O (stereo partly drawn) (Palmitoyl-C(X2)RPDRY-NH2) |  |  | Activity (Toll-like receptor 1/2 [6]): 112%
CNc1ccc([N+](=O)[O-])cc1-n1cnc(-c2ccc([N+](=O)[O-])cc2)c1 |  |  | EC50 (Toll-like receptor 1/2 [5]): 2.51 µM
CCCCCCCCCCCCCCCC(=O)OC[C@H](CS[C@H](NC(C)=O)C(=O)N[C@@H](CO)C(=O)N[C@@H](CCCCN)C(=O)N[C@@H](CCCCN)C(=O)N[C@@H](CCCCN)C(=O)N[C@@H](CCCCN)C(=O)N[C@@H](CO)C(=O)N[C@@H](CC(C)C)C(=O)N[C@@H](CC(C)C)C(=O)N[C@@H](CCSC)C(=O)N[C@@H](Cc1c[nH]c2ccccc12)C(=O)N[C@H](C(=O)N[C@H](C(=O)N[C@@H](CCC(N)=O)C(=O)N[C@H](C(=O)O)C(C)C)[C@@H](C)O)[C@@H](C)CC)OC(=O)CCCCCCCCCCCCCCC |  |  | EC50 (Toll-like receptor 2 [3]): 281 nM
CCCCCCCCCCCCCCCC(=O)OC[C@H](CSC[C@H](NC(=O)COCC(=O)NCCCOCCOCCOCCCNC(C)=O)C(=O)NCC(=O)N[C@H](CO)C(=O)COCC(=O)NCCCOCCOCCOCCCN)OC(=O)CCCCCCCCCCCCCCC |  |  | EC50 (Toll-like receptor 2 [3]): 20 nM; Ki (Toll-like receptor 2 [4]): 91 nM

More lines, main results first:

EC50 (Toll-like receptor 2 [1]) | EC50 (Toll-like receptor 2 [2]) | SMILES | further results
7030 nM | 7030 nM | CCCCCCCCNC(=O)OC[C@H](CSC[C@@H](N)C(=O)NCCOCCOCCOCCP(=O)(O)O)OC(=O)NCCCCCCCC | 
> 100000 nM | > 100000 nM | CCCCCCCCCCCC[C@H](CSC[C@@H](N)C(=O)NCCOCCOCCOCCP(=O)(O)O)OC(=O)NCCCCCCCCCCC | 
6.3 nM | 6.3 nM | CCCCCCCCCCCCCC(=O)OC[C@H](CSC[C@@H](N)C(=O)NCCOCCOCCOCCP(=O)(O)O)OC(=O)CCCCCCCCCCCCC | 
3450 nM | 3450 nM | CCCCCCCCCCCCCCCCOC[C@H](CSC[C@@H](N)C(=O)NCCOCCOCCOCCP(=O)(O)O)OCCCCCCCCCCCCCCCC | 
820 nM | 820 nM | CCCCCCCCCCNC(=O)OC[C@H](CSC[C@@H](N)C(=O)NCCOCCOCCOCCP(=O)(O)O)OC(=O)NCCCCCCCCCC | 
2640 nM | 2640 nM | CCCCCCCCCCCCCCCC(=O)N[C@H](CSC[C@@H](COC(=O)NCCCCCCCCCC)OC(=O)NCCCCCCCCCC)C(=O)NCCOCCOCCOCCP(=O)(O)O | 
830 nM | 830 nM | CCCCCCCCCCNC(=O)OC[C@H](CSC[C@@H](NC(=O)CCCCC)C(=O)NCCOCCOCCOCCP(=O)(O)O)OC(=O)NCCCCCCCCCC | 
550 nM | 550 nM | CCCCCCCCCCCCOC[C@H](CSC[C@@H](N)C(=O)NCCOCCOCCOCCP(=O)(O)O)OCCCCCCCCCCCC | 
